Laboratory results reported in article PMC9750858, “Rapid biosensor development using plant hormone receptors as reprogrammable scaffolds” (Nature Biotechnology, 2022).
Where “and” joins values, the source holds several entries; their conditions need not be identical. Equal entries are not always repeated.

Tests used:
[1] = biological target: T1, PYR1^WIN-M (Arabidopsis thaliana, UniProt O49686, A160I/D26G/E4G/F159A/H60P/K59Q/N90S/Y23H); test: ELISA-like plate assay, immobilized PYR1^WIN-M, biotinylated ΔN-HAB1^T+; assay type: binding; conditions: replicates
T1 construct: made in house
T1 sequence (O49686 with tags, fused parts or gaps E4G/Y23H/D26G/K59Q/H60P/N90S/F159A/A160I): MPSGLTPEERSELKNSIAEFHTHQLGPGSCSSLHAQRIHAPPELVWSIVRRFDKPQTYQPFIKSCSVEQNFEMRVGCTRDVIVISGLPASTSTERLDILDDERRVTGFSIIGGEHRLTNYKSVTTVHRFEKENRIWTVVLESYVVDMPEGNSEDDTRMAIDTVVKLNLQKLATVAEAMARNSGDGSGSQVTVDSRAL

[2] = biological target: T2, PYR1^PIRI (Arabidopsis thaliana, UniProt O49686, A160T/E130G/F159T/K59R/N119S/S122Q/S92M/V174A); test: Split NanoLuc luciferase complementation in yeast, NLuc^N-PYR1^PIRI/NLuc^C-HAB1; assay type: cell-based; conditions: Figure 4f(bottom), replicates
T2 construct: >PYR1-PIRI; expressed in transfected cells; host or cells: Saccharomyces cerevisiae BY4742

[3] = biological target: PYR1^DIAZI (Arabidopsis thaliana, UniProt O49686, A160V/E8G/F108Y/F159G/L87M/M158V/V81Y); test: Split NanoLuc luciferase complementation in yeast, NLuc^N-PYR1^DIAZI/NLuc^C-HAB1; assay type: cell-based; design: >PYR1-DIAZI; expressed in transfected cells; host or cells: Saccharomyces cerevisiae BY4742; conditions: Figure 4f(top), 3 replicates
PYR1^DIAZI, sequence (Q9CAJ0 179-511): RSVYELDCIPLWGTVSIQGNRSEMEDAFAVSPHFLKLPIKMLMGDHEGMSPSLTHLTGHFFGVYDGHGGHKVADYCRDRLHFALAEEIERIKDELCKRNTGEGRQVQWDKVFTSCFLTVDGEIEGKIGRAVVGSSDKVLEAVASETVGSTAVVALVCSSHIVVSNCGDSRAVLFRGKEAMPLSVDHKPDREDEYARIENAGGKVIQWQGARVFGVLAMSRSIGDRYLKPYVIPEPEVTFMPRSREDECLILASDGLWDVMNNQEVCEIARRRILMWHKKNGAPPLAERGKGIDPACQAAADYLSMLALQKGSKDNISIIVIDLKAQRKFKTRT
PYR1^DIAZI, sequence (O49686 other isoform, or with tags, fused parts or gaps E8G/V81Y/L87M/F108Y/M158V/F159G/A160V): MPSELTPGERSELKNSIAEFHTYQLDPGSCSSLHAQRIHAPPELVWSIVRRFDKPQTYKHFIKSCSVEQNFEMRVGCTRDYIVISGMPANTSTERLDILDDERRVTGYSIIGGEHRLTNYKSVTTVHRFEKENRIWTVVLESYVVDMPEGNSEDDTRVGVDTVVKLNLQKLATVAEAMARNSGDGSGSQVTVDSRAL

T2 sequence (O49686 other isoform, or with tags, fused parts or gaps K59R/S92M/N119S/S122Q/E130G/F159T/A160T/V174A): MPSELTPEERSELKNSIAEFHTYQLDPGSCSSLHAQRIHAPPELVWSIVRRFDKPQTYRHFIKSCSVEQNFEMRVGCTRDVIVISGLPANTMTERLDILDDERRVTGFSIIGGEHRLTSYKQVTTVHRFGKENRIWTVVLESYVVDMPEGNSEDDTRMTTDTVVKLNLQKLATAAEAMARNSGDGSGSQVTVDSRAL
T2 sequence (Q9CAJ0 179-511, further chain): as the sequence (Q9CAJ0 179-511) above

## Cc1ccc(C(=O)c2cn(CCN3CCOCC3)c3ccccc23)c2ccccc12 [JWH-193]
[1]; cannabinoid at 2 nM
  ELISA signal generation, receptor cross-reactivity (source data): 0.065 and 0.104 and 0.068
[1]; cannabinoid at 2 μM
  ELISA signal generation, receptor cross-reactivity (source data): 0.07 and 0.084 and 0.11

## CCCCCn1cc(-c2nc(CN(CC)CC)cs2)c2ccccc21 [PTI-1]
[1]; cannabinoid at 2 nM
  ELISA signal generation, receptor cross-reactivity (source data): 0.097 and 0.112 and 0.193
[1]; cannabinoid at 2 μM
  ELISA signal generation, receptor cross-reactivity (source data): 0.105 and 0.089 and 0.091

## CCCCCn1cc(C(=O)c2cccc3ccccc23)cc1-c1ccccc1 [JWH-145]
[1]; cannabinoid at 2 nM
  ELISA signal generation, receptor cross-reactivity (source data): 0.469 and 0.077 and 0.091
[1]; cannabinoid at 2 μM
  ELISA signal generation, receptor cross-reactivity (source data): 0.105 and 0.116 and 0.1

## CCCCCn1cc(C(=O)Cc2ccccc2)c2ccccc21 [JWH-167]
[1]; cannabinoid at 2 nM
  ELISA signal generation, receptor cross-reactivity (source data): 0.146 and 0.078 and 0.09
[1]; cannabinoid at 2 μM
  ELISA signal generation, receptor cross-reactivity (source data): 0.075 and 0.092 and 0.077

## CCCCCc1cc(O)c2c(c1)OC(C)(C)[C@@H]1CCC(C)=C[C@@H]21 [Δ^9-THC, tetrahydrocannabinol]
[1]; cannabinoid at 2 nM
  ELISA signal generation, receptor cross-reactivity (source data): 0.105 and 0.137 and 0.097
[1]; cannabinoid at 2 μM
  ELISA signal generation, receptor cross-reactivity (source data): 0.116 and 0.081 and 0.066

## CCOP(=O)(OCC)Oc1ccc([N+](=O)[O-])cc1 [Paraoxon]
[2]; [Agonist] 1e-5 nM
  Sensor signal (Figure 4f bottom), replicate values: 11.9047 and 18.1515 and 10.4931
[2]; [Agonist] 0.5 nM
  Sensor signal (Figure 4f bottom), replicate values: 11.0975 and 13.4157 and 8.837
[2]; [Agonist] 1 nM
  Sensor signal (Figure 4f bottom), replicate values: 12.5918 and 18.7436 and 9.615
[2]; [Agonist] 10 nM
  Sensor signal (Figure 4f bottom), replicate values: 11.1224 and 13.1225 and 9.775
[2]; [Agonist] 100 nM
  Sensor signal (Figure 4f bottom), replicate values: 10.0591 and 11.6876 and 14.7625
[2]; [Agonist] 1000 nM
  Sensor signal (Figure 4f bottom), replicate values: 10.1585 and 20.7126 and 25.0764
[2]; [Agonist] 10000 nM
  Sensor signal (Figure 4f bottom), replicate values: 13.1804 and 18.2375 and 74.7884
[2]; [Agonist] 100000 nM
  Sensor signal (Figure 4f bottom), replicate values: 12.8083 and 10.7531 and 85.8371
[3]; [Agonist] 1e-5 nM
  Sensor signal (Figure 4f top), replicate values: 10.8821 and 10.8818 and 16.2674
[3]; [Agonist] 0.5 nM
  Sensor signal (Figure 4f top), replicate values: 11.8181 and 17.5251 and 16.6639
[3]; [Agonist] 1 nM
  Sensor signal (Figure 4f top), replicate values: 24.3604 and 44.2392 and 23.2398
[3]; [Agonist] 10 nM
  Sensor signal (Figure 4f top), replicate values: 60.5829 and 64.6146 and 19.0156
[3]; [Agonist] 100 nM
  Sensor signal (Figure 4f top), replicate values: 14.8147 and 62.8846 and 19.484
[3]; [Agonist] 1000 nM
  Sensor signal (Figure 4f top), replicate values: 35.1388 and 74.2295 and 30.1748
[3]; [Agonist] 10000 nM
  Sensor signal (Figure 4f top), replicate values: 83.5675 and 57.6349 and 70.6242
[3]; [Agonist] 100000 nM
  Sensor signal (Figure 4f top), replicate values: 100.899 and 20.8486 and 98.4357

## CCCc1ccc(C(=O)c2cn(CCC)c3ccccc23)c2ccccc12 [JWH-180]
[1]; cannabinoid at 2 nM
  ELISA signal generation, receptor cross-reactivity (source data): 0.104 and 0.071 and 0.083
[1]; cannabinoid at 2 μM
  ELISA signal generation, receptor cross-reactivity (source data): 0.08 and 0.088 and 0.087
